Results on 1 molecule are retold here after patent publication US20240374600A1, “METHODS AND COMPOSITIONS FOR TREATING CANCER” (Onconova Therapeutics, Inc., priority 2021, published 2024).

The target of one data set is T1, ARK 5/NUAK 1 (Homo sapiens, UniProt O60285).
T1 sequence (O60285 1-661): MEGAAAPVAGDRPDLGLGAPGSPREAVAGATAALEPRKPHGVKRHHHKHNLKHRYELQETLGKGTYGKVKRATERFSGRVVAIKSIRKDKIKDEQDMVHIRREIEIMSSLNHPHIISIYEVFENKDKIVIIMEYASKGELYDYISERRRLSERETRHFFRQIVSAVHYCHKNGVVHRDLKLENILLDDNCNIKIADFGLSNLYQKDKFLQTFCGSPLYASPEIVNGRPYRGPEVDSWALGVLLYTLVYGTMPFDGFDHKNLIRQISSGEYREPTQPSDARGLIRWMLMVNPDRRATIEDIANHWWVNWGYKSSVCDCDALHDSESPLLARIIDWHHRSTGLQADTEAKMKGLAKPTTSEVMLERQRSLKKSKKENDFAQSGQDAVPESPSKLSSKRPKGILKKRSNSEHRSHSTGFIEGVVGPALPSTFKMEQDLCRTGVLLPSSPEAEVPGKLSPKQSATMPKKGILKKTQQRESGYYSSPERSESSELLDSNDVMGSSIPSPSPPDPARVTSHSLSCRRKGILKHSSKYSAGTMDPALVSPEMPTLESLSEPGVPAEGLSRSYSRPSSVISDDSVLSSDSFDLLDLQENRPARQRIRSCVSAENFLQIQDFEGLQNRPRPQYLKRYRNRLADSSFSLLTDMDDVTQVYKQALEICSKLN
The data set is described as follows: In vitro multi-kinase activity, IC50. In kind it is biochemical. From the text: (§1) The study evaluates the IC50 values (in nM) of Compound 1 in comparison to FDA approved CDK 4/6 inhibitors Comparator 1, Comparator 2 and Comparator 3, which represent treatment advances for HR+ HER^2-metastatic breast cancer. IC50 value is a quantitative measure indicating the concentration needed to inhibit the listed kinase by 50%.

A further data set has as its target CDK1/cyclin B (Homo sapiens, UniProt P06493). The data set is described as follows: In vitro multi-kinase activity, IC50. In kind it is biochemical.
Description: as §1

The target of another data set is CDK16/cyclin Y (Homo sapiens, UniProt Q00536). The experiment in a line: In vitro multi-kinase activity, IC50. It is filed as biochemical.
CDK16/cyclin Y, sequence (Q00536 whole entry): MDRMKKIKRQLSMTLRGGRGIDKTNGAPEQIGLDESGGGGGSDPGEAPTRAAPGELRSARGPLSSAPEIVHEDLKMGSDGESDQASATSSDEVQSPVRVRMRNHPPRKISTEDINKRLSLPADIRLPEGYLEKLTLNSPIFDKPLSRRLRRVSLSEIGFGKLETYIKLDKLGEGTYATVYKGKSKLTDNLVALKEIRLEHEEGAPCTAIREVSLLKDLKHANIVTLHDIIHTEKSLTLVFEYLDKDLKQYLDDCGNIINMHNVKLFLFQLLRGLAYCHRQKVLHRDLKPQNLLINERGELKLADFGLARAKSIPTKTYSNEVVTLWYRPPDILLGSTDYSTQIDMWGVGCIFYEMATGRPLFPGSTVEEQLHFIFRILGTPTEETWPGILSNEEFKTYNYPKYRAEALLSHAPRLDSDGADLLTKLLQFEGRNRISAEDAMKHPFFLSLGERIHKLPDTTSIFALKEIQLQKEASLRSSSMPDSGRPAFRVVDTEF
CDK16/cyclin Y, sequence (Q8ND76 whole entry partner): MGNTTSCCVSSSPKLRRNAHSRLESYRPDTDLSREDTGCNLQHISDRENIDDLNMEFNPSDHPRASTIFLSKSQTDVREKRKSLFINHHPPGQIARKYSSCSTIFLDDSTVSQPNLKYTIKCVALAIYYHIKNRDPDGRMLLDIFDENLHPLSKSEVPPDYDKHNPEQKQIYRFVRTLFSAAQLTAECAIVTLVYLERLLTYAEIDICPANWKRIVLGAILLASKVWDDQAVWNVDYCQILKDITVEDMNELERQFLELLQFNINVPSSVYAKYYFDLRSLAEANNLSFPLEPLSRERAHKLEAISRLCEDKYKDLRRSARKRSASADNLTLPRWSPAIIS
Description: as §1

The next data set concerns the target CDK17/cyclin Y (Homo sapiens, UniProt Q00537). The experiment in a line: In vitro multi-kinase activity, IC50. In kind it is biochemical.
Description: as §1

The target in a further data set is CDK2/cyclin E (Homo sapiens, UniProt P24941). The experiment in a line: In vitro multi-kinase activity, IC50. It is filed as biochemical.
Description: as §1

For another data set, the target named is CDK4/cyclin D1 (Homo sapiens, UniProt P11802). The data set is described as follows: In vitro multi-kinase activity, IC50. It is filed as biochemical.
Description: as §1

The target of the next data set is CDK6/cyclin D1 (Homo sapiens, UniProt Q00534). The data set is described as follows: In vitro multi-kinase activity, IC50. It is filed as biochemical.
CDK6/cyclin D1, sequence (Q00534 whole entry): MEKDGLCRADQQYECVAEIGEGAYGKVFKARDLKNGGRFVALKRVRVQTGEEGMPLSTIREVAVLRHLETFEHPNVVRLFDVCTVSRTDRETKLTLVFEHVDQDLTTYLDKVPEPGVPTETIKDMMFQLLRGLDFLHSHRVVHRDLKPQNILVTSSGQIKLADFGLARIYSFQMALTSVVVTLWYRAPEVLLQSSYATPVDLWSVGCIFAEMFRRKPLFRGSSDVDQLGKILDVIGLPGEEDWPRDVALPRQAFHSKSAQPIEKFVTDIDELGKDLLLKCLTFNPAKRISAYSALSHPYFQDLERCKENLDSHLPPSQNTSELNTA
CDK6/cyclin D1, sequence (P24385 whole entry partner): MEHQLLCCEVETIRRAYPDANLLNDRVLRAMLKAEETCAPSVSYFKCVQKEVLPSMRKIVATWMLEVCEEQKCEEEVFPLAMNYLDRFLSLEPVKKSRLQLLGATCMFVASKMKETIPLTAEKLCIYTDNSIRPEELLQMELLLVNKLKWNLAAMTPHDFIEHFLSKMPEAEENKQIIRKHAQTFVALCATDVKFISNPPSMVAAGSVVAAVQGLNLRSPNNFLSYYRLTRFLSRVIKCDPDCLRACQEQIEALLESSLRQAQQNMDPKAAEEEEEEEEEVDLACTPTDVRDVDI
Description: as §1

In the next data set the target is CDK7/cyclin H (Homo sapiens, UniProt P50613). The experiment in a line: In vitro multi-kinase activity, IC50. It is filed as biochemical.
Description: as §1

For another data set, the target named is CDK9/cyclinT1 (Homo sapiens, UniProt P50750). The data set is described as follows: In vitro multi-kinase activity, IC50. In kind it is biochemical.
CDK9/cyclinT1, sequence (P50750 whole entry): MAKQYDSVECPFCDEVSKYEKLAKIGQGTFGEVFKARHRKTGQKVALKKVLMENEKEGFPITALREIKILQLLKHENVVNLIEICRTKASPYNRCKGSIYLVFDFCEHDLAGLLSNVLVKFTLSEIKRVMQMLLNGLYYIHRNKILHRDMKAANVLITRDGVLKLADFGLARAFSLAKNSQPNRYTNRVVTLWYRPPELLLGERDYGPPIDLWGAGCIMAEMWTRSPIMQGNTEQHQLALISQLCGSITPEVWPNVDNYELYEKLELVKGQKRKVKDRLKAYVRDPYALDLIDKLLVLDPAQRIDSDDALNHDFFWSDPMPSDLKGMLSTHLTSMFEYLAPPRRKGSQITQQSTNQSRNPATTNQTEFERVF
CDK9/cyclinT1, sequence (O60563 whole entry partner): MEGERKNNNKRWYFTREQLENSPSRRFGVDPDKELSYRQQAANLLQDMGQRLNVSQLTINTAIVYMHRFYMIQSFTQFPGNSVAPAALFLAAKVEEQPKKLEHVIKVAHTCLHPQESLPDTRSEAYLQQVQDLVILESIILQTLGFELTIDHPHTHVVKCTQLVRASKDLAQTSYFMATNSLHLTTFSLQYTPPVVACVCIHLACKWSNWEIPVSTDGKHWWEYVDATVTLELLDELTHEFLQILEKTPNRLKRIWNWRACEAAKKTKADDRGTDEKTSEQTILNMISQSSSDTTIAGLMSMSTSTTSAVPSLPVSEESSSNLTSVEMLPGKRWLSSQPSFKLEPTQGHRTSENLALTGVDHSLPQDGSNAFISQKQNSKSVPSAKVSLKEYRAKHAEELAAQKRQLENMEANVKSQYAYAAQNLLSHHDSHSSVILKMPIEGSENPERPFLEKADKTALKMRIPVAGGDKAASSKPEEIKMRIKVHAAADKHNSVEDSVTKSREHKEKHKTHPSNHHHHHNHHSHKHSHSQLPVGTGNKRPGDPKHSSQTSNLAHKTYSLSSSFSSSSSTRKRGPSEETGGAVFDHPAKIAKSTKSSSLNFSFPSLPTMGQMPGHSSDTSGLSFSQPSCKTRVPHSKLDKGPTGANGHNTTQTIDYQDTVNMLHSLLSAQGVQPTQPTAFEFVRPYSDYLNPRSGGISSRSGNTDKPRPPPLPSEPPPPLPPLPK
Description: as §1

Another data set concerns the target CSF1R (Homo sapiens, UniProt P07333). The experiment in a line: In vitro multi-kinase activity, IC50. It is filed as biochemical.
Description: as §1

A further data set concerns the target KIT (Homo sapiens, UniProt P10721). The data set is described as follows: In vitro multi-kinase activity, IC50. It is filed as biochemical.
Description: as §1

A short description of data set [1]: Neutropenia in preclinical models (FIG. 2). In kind it is in vivo. The following applies: in comparison to Comparator 1.
Data set [2] is described as follows: Phase 1 dose-escalation study in patients with advanced cancer. In kind it is in vivo, human. How it is done:
The study is a phase 1 dose-escalation study of 8-cyclopentyl-2-((4-(4-methylpiperazin-1-yl)phenyl)amino)-7-oxo-7,8-dihydropyrido[2,3-d]pyrimidine-6-carbonitrile (Compound 1) in patients with advanced cancer. Patients are dosed daily in 28-day cycles with Compound 1 starting at 40 mg daily with dosages escalating 40 mg/day increments for each new cohort or only on days 1-21 of 28-day cycles. […] Adverse events reported are Grade 1 or 2 in severity and are predominantly gastrointestinal (GI) disorders.

A further data set concerns kinases. The data set is described as follows: KinMap kinase inhibition profile (FIG. 1). As to conditions: compared to a kinase inhibitor that is not compound 1.

Each structure is given as a SMILES string. “Also recorded” adds a separate entry of the source.

CDK17/cyclin Y, sequence (Q00537 whole entry): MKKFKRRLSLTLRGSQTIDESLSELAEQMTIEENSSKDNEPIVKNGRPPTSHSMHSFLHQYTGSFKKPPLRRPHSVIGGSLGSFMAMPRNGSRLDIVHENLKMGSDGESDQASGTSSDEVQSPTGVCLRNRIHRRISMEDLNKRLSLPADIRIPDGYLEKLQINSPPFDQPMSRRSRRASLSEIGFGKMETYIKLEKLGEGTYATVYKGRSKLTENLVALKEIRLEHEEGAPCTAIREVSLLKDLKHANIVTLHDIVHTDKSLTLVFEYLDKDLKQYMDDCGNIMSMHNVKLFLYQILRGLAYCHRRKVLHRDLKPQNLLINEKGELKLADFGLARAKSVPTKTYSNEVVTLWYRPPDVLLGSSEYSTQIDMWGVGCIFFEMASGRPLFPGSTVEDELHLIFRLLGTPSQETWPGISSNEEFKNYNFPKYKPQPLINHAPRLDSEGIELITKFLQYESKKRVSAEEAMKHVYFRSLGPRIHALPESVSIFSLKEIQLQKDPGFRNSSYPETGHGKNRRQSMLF
CDK17/cyclin Y, sequence (Q8ND76 whole entry partner): as the sequence (Q8ND76 whole entry partner) above
CDK1/cyclin B, sequence (P06493 whole entry): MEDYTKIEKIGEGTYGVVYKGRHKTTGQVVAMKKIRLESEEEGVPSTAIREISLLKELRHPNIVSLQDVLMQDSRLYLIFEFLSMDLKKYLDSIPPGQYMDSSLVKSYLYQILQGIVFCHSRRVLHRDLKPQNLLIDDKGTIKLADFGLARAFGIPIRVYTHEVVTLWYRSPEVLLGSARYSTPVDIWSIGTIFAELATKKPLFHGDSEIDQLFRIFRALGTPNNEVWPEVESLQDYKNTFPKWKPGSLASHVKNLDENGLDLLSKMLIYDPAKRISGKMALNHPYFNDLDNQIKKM
CDK1/cyclin B, sequence (P14635 whole entry partner): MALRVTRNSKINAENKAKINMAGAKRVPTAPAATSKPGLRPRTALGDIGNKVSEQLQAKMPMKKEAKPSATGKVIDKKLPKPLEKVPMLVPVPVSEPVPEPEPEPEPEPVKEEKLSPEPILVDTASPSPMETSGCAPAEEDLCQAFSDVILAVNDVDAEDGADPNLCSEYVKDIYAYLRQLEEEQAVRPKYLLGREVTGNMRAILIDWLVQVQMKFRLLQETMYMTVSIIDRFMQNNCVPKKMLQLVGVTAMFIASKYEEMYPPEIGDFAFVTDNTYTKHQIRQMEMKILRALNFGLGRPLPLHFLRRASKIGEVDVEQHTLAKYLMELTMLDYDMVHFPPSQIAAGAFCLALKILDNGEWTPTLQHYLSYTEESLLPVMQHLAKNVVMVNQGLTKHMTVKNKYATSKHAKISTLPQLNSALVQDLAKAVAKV
KIT, sequence (P10721 26-976): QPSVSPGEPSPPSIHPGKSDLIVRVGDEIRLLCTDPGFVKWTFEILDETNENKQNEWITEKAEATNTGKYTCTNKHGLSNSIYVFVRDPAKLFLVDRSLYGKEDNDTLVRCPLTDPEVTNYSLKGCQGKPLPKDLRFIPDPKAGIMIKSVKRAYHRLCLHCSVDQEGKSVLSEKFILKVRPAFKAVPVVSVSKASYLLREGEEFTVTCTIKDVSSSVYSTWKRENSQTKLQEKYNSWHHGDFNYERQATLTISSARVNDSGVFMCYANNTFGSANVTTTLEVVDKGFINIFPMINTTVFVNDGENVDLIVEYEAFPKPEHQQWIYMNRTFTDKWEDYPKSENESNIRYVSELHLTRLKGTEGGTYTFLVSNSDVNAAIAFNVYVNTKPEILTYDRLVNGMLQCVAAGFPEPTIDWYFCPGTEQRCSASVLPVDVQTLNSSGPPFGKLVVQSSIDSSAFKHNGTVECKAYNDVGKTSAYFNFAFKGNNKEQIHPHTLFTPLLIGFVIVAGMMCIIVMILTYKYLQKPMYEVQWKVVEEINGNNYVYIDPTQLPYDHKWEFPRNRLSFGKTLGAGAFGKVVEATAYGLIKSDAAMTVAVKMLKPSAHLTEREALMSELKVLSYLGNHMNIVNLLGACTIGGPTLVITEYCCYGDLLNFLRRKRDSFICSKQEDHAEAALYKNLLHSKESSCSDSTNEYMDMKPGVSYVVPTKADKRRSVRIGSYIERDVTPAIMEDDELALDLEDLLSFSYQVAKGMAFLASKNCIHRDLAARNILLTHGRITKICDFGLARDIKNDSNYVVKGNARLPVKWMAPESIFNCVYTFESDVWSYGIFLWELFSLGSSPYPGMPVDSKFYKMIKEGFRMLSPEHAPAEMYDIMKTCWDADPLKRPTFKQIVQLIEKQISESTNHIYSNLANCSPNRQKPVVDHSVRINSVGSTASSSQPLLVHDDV

On to `CN1CCN(c2ccc(Nc3ncc4cc(C#N)c(=O)n(C5CCCC5)c4n3)cc2)CC1` [Compound 1, 8-cyclopentyl-2-((4-(4-methylpiperazin-1-yl)phenyl)amino)-7-oxo-7,8-dihydropyrido[2,3-d]pyrimidine-6-carbonitrile], for which the IC50 on ARK 5/NUAK 1 was determined as 5 nM; against CDK1/cyclin B it was 515 nM; on CDK16/cyclin Y, 25 nM; against CDK17/cyclin Y, 14 nM; on CDK2/cyclin E, 69 nM; at CDK4/cyclin D1 it was 2 nM. Also, the IC50 was found to be 0.6 nM at CDK6/cyclin D1; 3770 nM against CDK7/cyclin H; 48 nM on CDK9/cyclinT1; 0.7 nM against CSF1R; 8.5 nM at KIT. Moreover, in data set [1], the neutropenia result is recorded as “reduced Neutropenia; also recorded: less neutropenia”. In data set [2] (200 mg/day cohort, oral, daily in 28-day cycles), the dose-limiting toxicities entry is recorded as “No dose-limiting toxicities”. The “severity of adverse events reported” value in data set [2] (predominantly gastrointestinal (GI) disorders) is on record as “Grade 1 or 2”. The “inhibition profile by KinMap” value in the data set with kinases was “wider inhibition profile”.
